Measured values taken from patent publication US4745123A, “Substituted tetrahydro-3-pyridine-carboxylic acid, ester, and amide cholinergic agents” (priority 1986, dated 1988).
Structures can show the parent of a compound that is named as a salt.

Tests used:
muscarinic binding site = test: inhibition of specific binding at the muscarinic binding site
Protocol: The compounds were assayed at one or more concentrations in each binding assay.

rats = test: reversal of retrograde amnesia in rats produced by electroconvulsive shock treatment; assay type: in vivo, rat (Charles River CD strain); design: reversal of retrograde amnesia (Table C): scale not given here
Protocol: Several representative compounds of the present invention were also assayed in an in vivo test designed to assess the ability of the compounds to reverse retrograde amnesia in rats produced by electroconvulsive shock treatment. Activity of a compound in this test is indicative of potential cognition activating activity in human patients suffering from impaired cognitive function.
In the test, groups of fifty weanling rats (Charles River CD strain) are randomly divided into five sub-groups of ten rats each. The rats are trained by placing them in a highly illuminated 6 inch by 8 inch box which opens into a darkened 8 inch by 12 inch chamber having electrified grids. Initially, rats move freely from the illuminated compartment to the darkened chamber through a 4 inch by 4 inch doorway.
When a rat has all four feet within the darkened chamber, the floor of the darkened chamber is electrified and the rat is electrically shocked until it exits to the original illuminated area. If a rat reenters the darkened chamber before one minute has elapsed, it again receives a mild foot shock until it exits to the illuminated area. When the rat remains in the illuminated area for a period of one minute, it is removed and placed in a group holding cage.
Two hours after the above training, the rats are given a single 20 ma electroconvulsive shock of 1 second duration and immediately returned to the holding cage.
Two hours after the delivery of the shock, the rats are administered the test compound orally, or intraperitoneally or intramuscularly for special tests.
One hour after treatment with the test compound, the rats are tested for retention of the avoidance response. This is accomplished by placing a drug-treated rat in the illuminated area of the test chamber. […] Any rat entering the darkened chamber within sixty seconds is designated as having amnesia for this response.
The five sub-groups of ten rats each were treated as follows:
A 50% difference between the baseline and ceiling control groups was required to evaluate a particular test compound. If a difference of less than 50% was observed, the results of that particular experiment were discarded.
Under the test conditions, a difference of this magnitude is statistically significant using the multinomial expansion of the statistical chi-square test.

[1] = test system: patients clinically diagnosed as having presenile primary degenerative dementia; conditions: double blind study, Christie et al. (1981); cited from earlier work

COC(=O)C1CN(C)CC=C1c1ccccc1 (racemic) [Example 63, (±)-1,2,3,6-tetrahydro-1-methyl-4-phenyl-3-pyridinecarboxylic acid, methyl ester]
IC50 (muscarinic binding site): 3.64 µM | active (A) / inactive (N), reversal of retrograde amnesia (rats; 0.01 mg/kg): A ("active" (A) if the difference between the numbers of animals in the drug and control groups reentering the darkened chamber was equal or greater than three out of ten) | reversal of retrograde amnesia (Table C) (rats; 0.01 mg/kg): 50 | active (A) / inactive (N), reversal of retrograde amnesia (rats; 0.1 mg/kg): N (if less than three, the test compound was considered "inactive" (N)) | reversal of retrograde amnesia (Table C) (rats; 0.1 mg/kg): 17 | active (A) / inactive (N), reversal of retrograde amnesia (rats; 1.0 mg/kg): A ("active" (A) if the difference between the numbers of animals in the drug and control groups reentering the darkened chamber was equal or greater than three out of ten) | reversal of retrograde amnesia (Table C) (rats; 1.0 mg/kg): 50

COC(=O)C1=CCCN(C)C1 [Arecoline, methyl ester of 1,2,5,6-tetrahydro-1-methyl-3-pyridinecarboxylic acid, reference compound]
IC50 (muscarinic binding site): 1.1 µM | test of picture recognition [1]: Significant improvement

CCN1CCC(c2ccccc2)=C(C(=O)OCc2ccccc2)C1 [Example 1]
IC50 (muscarinic binding site): 0.31 µM | active (A) / inactive (N), reversal of retrograde amnesia (rats; 0.01 mg/kg): N (if less than three, the test compound was considered "inactive" (N)) | reversal of retrograde amnesia (Table C) (rats; 0.01 mg/kg): 40 | active (A) / inactive (N), reversal of retrograde amnesia (rats; 0.1 mg/kg): N (if less than three, the test compound was considered "inactive" (N)) | reversal of retrograde amnesia (Table C) (rats; 0.1 mg/kg): 20 | active (A) / inactive (N), reversal of retrograde amnesia (rats; 1.0 mg/kg): N (if less than three, the test compound was considered "inactive" (N)) | reversal of retrograde amnesia (Table C) (rats; 1.0 mg/kg): 40

COC(=O)C1=C(c2ccccc2)CCN(C)C1 [Example 21, 1,2,5,6-tetrahydro-1-methyl-4-phenyl-3-pyridinecarboxylicacid, methyl ester]
IC50 (muscarinic binding site): 3.16 µM | active (A) / inactive (N), reversal of retrograde amnesia (rats; 0.01 mg/kg): A ("active" (A) if the difference between the numbers of animals in the drug and control groups reentering the darkened chamber was equal or greater than three out of ten) | reversal of retrograde amnesia (Table C) (rats; 0.01 mg/kg): 57 | active (A) / inactive (N), reversal of retrograde amnesia (rats; 0.1 mg/kg): N (if less than three, the test compound was considered "inactive" (N)) | reversal of retrograde amnesia (Table C) (rats; 0.1 mg/kg): 57 | active (A) / inactive (N), reversal of retrograde amnesia (rats; 1.0 mg/kg): N (if less than three, the test compound was considered "inactive" (N)) | reversal of retrograde amnesia (Table C) (rats; 1.0 mg/kg): 0

CCCN1CCC(c2ccccc2)=C(C(=O)OC)C1 [Example 22, 1,2,5,6-Tetrahydro-4-phenyl-1-propyl-3-pyridinecarboxylic acid, methyl ester]
IC50 (muscarinic binding site): 6.5 µM | active (A) / inactive (N), reversal of retrograde amnesia (rats; 0.01 mg/kg): A ("active" (A) if the difference between the numbers of animals in the drug and control groups reentering the darkened chamber was equal or greater than three out of ten) | reversal of retrograde amnesia (Table C) (rats; 0.01 mg/kg): 57 | active (A) / inactive (N), reversal of retrograde amnesia (rats; 0.1 mg/kg): A ("active" (A) if the difference between the numbers of animals in the drug and control groups reentering the darkened chamber was equal or greater than three out of ten) | reversal of retrograde amnesia (Table C) (rats; 0.1 mg/kg): 81 | active (A) / inactive (N), reversal of retrograde amnesia (rats; 1.0 mg/kg): A ("active" (A) if the difference between the numbers of animals in the drug and control groups reentering the darkened chamber was equal or greater than three out of ten) | reversal of retrograde amnesia (Table C) (rats; 1.0 mg/kg): 57

CCN1CCC(c2ccc(Cl)cc2)=C(C(=O)OC)C1 [Example 33]
IC50 (muscarinic binding site): 5 µM

CCN1CCC(c2ccc(F)cc2)=C(C(=O)OC)C1 [Example 38]
IC50 (muscarinic binding site): 4 µM

CCN1CCC(c2ccccc2)=C(C(=O)OC(C)C)C1 [Example 39]
IC50 (muscarinic binding site): 0.4 µM

CCCN1CCC(c2ccccc2)=C(C(=O)N(CC)CC)C1 [Example 41, N,N-diethyl-4-phenyl-1-propyl-1,2,5,6-tetrahydro-3-pyridinecarboxamide, ethanedioate]
IC50 (muscarinic binding site): 10 µM

CCCN1CCC(c2ccc(Cl)cc2)=C(C(=O)OCc2ccccc2)C1 [Example 43, 4-(4-chlorophenyl)-1,2,5,6-tetrahydro-1-propyl-3-pyridinecarboxylic acid, phenylmethyl ester, monohydrochloride]
IC50 (muscarinic binding site): 0.4 µM

CCN1CCC(c2ccccc2)=C(C(=O)NC(C)C)C1 [Example 44, 1-ethyl-1,2,5,6-tetrahydro-N-(1-methylethyl)-4-phenyl-3-pyridinecarboxamide, monohydrochloride]
IC50 (muscarinic binding site): 9 µM

CCN1CCC(c2ccccc2)=C(C(=O)NC2CCCCC2)C1 [Example 45, N-cyclohexyl-1-ethyl-1,2,5,6-tetrahydro-4-phenyl-3-pyridinecarboxamide, monohydrochloride]
IC50 (muscarinic binding site): 0.3 µM

CCCN1CCC(c2ccccc2)=C(C(=O)NCc2ccccc2)C1 [Example 46, 1,2,5,6-tetrahydro-4-phenyl-N-phenylmethyl-1-propyl-3-pyridinecarboxamide]
IC50 (muscarinic binding site): 10 µM

CCN1CCC(c2ccccc2)=C(C(=O)NC2CCCC2)C1 [Example 47, N-cyclopentyl-1-ethyl-1,2,5,6-tetrahydro-4-phenyl-3-pyridinecarboxamide, monohydrochloride]
IC50 (muscarinic binding site): 0.6 µM

CCN1CCC(c2ccccc2)=C(C(=O)NCCc2ccccc2)C1 [Example 52, 1-ethyl-1,2,5,6-tetrahydro-4-phenyl-N-(2-phenylethyl)-3-pyridinecarboxamide, ethanedioate]
IC50 (muscarinic binding site): 5 µM

CCN1CCC(c2ccccc2)=C(C(=O)N(C(C)C)C(C)C)C1 [Example 53, 1-ethyl-1,2,5,6-tetrahydro-N,N-bis(1-methylethyl)-4-phenyl-3-pyridinecarboxamide, monohydrochloride]
IC50 (muscarinic binding site): 0.9 µM

CCCN1CCC(c2ccccc2)=C(C(=O)NC2CCCCC2)C1 [Example 55]
IC50 (muscarinic binding site): 5 µM

CCN1CCC(c2ccccc2)=C(C(=O)Nc2ccccc2)C1 [Example 57]
IC50 (muscarinic binding site): 10 µM

COC(=O)C1CN(CCc2ccccc2)CC=C1c1ccccc1 (stereo not drawn) [Example 64]
IC50 (muscarinic binding site): 10 µM

CCCN1CC=C(c2ccccc2)C(C(=O)OCc2ccccc2)C1 (stereo not drawn) [Example 74]
IC50 (muscarinic binding site): 2 µM

CCOC(=O)C1CN(CC)CC=C1c1ccccc1C (stereo not drawn) [Example 82]
IC50 (muscarinic binding site): 7 µM

CCN1CC=C(c2ccccc2)C(C(=O)OC(C)C)C1 (stereo not drawn) [Example 87]
IC50 (muscarinic binding site): 0.8 µM

CCN1CC=C(c2ccccc2)C(C(=O)OC2CCCC2)C1 (stereo not drawn) [Example 88]
IC50 (muscarinic binding site): 0.36 µM
